IC50 data for 31 compounds are collected here from patent publication US11370776B2, “Sulfonylureas and sulfonylthioureas as NLRP3 inhibitors” (Inflazome Limited, priority 2017, dated 2022).

Structures can show the parent of a compound that is named as a salt.

Sequence of NLRP3 (Q96P20 whole entry): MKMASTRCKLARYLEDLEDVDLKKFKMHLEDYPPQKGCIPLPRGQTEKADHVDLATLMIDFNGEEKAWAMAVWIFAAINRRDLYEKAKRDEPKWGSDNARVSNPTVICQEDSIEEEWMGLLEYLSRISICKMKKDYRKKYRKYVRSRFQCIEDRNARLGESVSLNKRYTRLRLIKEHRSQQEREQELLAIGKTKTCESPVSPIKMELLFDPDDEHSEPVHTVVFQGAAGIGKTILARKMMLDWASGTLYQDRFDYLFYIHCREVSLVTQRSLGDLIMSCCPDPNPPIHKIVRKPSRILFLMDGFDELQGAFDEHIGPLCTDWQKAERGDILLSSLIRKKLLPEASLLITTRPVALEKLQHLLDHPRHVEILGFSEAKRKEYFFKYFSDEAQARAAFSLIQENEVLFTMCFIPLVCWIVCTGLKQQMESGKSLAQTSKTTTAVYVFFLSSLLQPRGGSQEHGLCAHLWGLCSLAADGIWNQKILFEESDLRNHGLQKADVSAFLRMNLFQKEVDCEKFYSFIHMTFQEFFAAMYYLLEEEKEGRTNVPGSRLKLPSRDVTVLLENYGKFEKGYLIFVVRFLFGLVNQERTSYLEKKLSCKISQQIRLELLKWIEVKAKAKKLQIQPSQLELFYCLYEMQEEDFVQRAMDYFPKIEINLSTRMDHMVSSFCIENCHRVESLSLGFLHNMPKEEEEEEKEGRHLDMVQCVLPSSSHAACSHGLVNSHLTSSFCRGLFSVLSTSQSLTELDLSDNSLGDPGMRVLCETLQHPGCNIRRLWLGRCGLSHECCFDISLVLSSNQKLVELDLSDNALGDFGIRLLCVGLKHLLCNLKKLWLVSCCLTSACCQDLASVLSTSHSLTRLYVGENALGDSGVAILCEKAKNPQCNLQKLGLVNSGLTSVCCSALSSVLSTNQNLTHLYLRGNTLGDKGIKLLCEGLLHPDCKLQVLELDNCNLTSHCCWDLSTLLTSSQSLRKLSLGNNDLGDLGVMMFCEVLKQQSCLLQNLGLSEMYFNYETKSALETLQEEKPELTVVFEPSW

One assay concerns the target NLRP3 (Homo sapiens, UniProt Q96P20). Nature of the assay: THP-1 cells pyroptosis assay. In kind it is cell-based. On the set-up: Seed THP-1 cells (25,000 cells/well) containing 1.0 μg/ml LPS; host or cells: THP-1 cells, LPS-primed, nigericin-stimulated. As to conditions: THP-1 cells, 1.0 μg/ml LPS, nigericin 5 μM, pyroptosis read with resazurin; read-out: THP IC50. How it is done: The cells were routinely passaged and grown to confluency (˜10^6 cells/ml). On the day of the experiment, THP-1 cells were harvested and resuspended into RPMI medium (without FBS). The cells were then counted and viability (>90%) checked by Trypan blue (Sigma # T8154). […] To this diluted cell solution was added LPS (Sigma # L4524) to give a 1 μg/ml Final Assay Concentration (FAC). 40 μl of the final preparation was aliquoted into each well of a 96-well plate. The plate thus prepared was used for compound screening. THP-1 Cells Pyroptosis Assay The following method step-by-step assay was followed for compound screening. • 1. […] Add 5 μl nigericin (Sigma # N7143) (FAC 5 μM) to all wells • 5. […] At the end of the incubation period, spin plates at 300×g for 3 mins and remove supernatant • 7. Then add 50 μl of resazurin (Sigma # R7017) (FAC 100 μM resazurin in RPMI medium without FBS) and incubate plates for a further 1-2 hrs at 37° C. and 5% CO2 • 8. […] IC50 data is fitted to a non-linear regression equation (log inhibitor vs response-variable slope 4-parameters) [table]
As usually defined, the IC50 is the point on the concentration scale where inhibition reaches its midpoint. In the case of `O=C(Nc1c2c(cc3c1CCC3)CCC2)NS(=O)(=O)c1cccnn1` [Example 2, N-((1,2,3,5,6,7-Hexahydro-s-indacen-4-yl)carbamoyl)pyridazine-3-sulfonamide, Potassium Salt], the 50% inhibitory concentration (IC50) is below 2 µM. For `O=C(Nc1c2c(cc3c1CCC3)CCC2)NS(=O)(=O)c1ncccn1` [Example 3, N-((1,2,3,5,6,7-Hexahydro-s-indacen-4-yl)carbamoyl) pyrimidine-2-sulfonamide, Potassium Salt], the IC50 is below 1.6 µM. Turning to `Cc1ccc(S(=O)(=O)NC(=O)Nc2c3c(cc4c2CCC4)CCC3)nn1` [Example 4, N-((1,2,3,5,6,7-Hexahydro-s-indacen-4-yl)carbamoyl)-6-methylpyridazine-3-sulfonamide, Sodium Salt], the IC50 was below 10 µM. On to `Cc1ccc(S(=O)(=O)NC(=O)Nc2c(C(C)C)cccc2C(C)C)nn1` [Example 5, N-((2,6-Diisopropylphenyl)carbamoyl)-6-methylpyridazine-3-sulfonamide, Potassium Salt], for which the IC50 was below 10 µM. Regarding `CC(C)c1cccc(C(C)C)c1NC(=O)NS(=O)(=O)c1cnccn1` [Example 6, N-((2,6-Diisopropylphenyl)carbamoyl)pyrazine-2-sulfonamide, Sodium Salt], the IC50 was below 10 µM. As for `O=C(Nc1c2c(cc3c1CCC3)CCC2)NS(=O)(=O)c1ccc(Cl)nn1` [Example 11, 6-Chloro-N-((1,2,3,5,6,7-hexahydro-s-indacen-4-yl)carbamoyl) pyridazine-3-sulfonamide, Potassium Salt], the IC50 was below 10 µM. Turning to `COc1cc(S(=O)(=O)NC(=O)Nc2c3c(cc4c2CCC4)CCC3)c(OC)nn1` [Example 12, N-((1,2,3,5,6,7-Hexahydro-s-indacen-4-yl)carbamoyl)-3,6-di methoxypyridazine-4-sulfonamide, potassium salt], the IC50 was below 1.2 µM. `CN(C)c1ccc(S(=O)(=O)NC(=O)Nc2c3c(cc4c2CCC4)CCC3)nn1` [Example 13, 6-(Dimethylamino)-N-((1,2,3,5,6,7-hexahydro-s-indacen-4-yl)carbamoyl)pyridazine-3-sulfonamide, potassium salt]: the IC50 was below 1.6 µM. With `O=C(Nc1c2c(cc3c1CCC3)CCC2)NS(=O)(=O)c1nccnc1C(F)F` [Example 14, 3-(Difluoromethyl)-N-((1,2,3,5,6,7-hexahydro-s-indacen-4-yl)carbamoyl)pyrazine-2-sulfonamide, potassium salt], the IC50 was below 2 µM.

For `COc1ncccc1S(=O)(=O)NC(=O)Nc1c2c(cc3c1CCC3)CCC2` [Example 15, N-((1,2,3,5,6,7-Hexahydro-s-indacen-4-yl)carbamoyl)-2-methoxypyridine-3-sulfonamide, Potassium Salt], the IC50 was below 1.2 µM. With `O=C(Nc1c2c(cc3c1CCC3)CCC2)NS(=O)(=O)c1cc(C(F)(F)F)cnn1` [Example 16, N-((1,2,3,5,6,7-Hexahydro-s-indacen-4-yl)carbamoyl)-5-(trifluoromethyl)pyridazine-3-sulfonamide, Potassium Salt], the half-inhibitory concentration (IC50) was below 10 µM. Turning to `COc1cc(S(=O)(=O)NC(=O)Nc2c3c(cc4c2CCC4)CCC3)ncn1` [Example 19, N-((1,2,3,5,6,7-Hexahydro-s-indacen-4-yl)carbamoyl)-6-methoxypyrimidine-4-sulfonamide, Potassium Salt], the IC50 was below 0.8 µM. Take `NC(=O)c1ccc(S(=O)(=O)NC(=O)Nc2c3c(cc4c2CCC4)CCC3)nn1` [Example 20, 6-(N-((1,2,3,5,6,7-Hexahydro-s-indacen-4-yl)carbamoyl)sulfamoyl) pyridazine-3-carboxamide, potassium salt]: the IC50 was below 10 µM. Regarding `CN(C)c1cnnc(S(=O)(=O)NC(=O)Nc2c3c(cc4c2CCC4)CCC3)c1` [Example 21, 5-(Dimethylamino)-N-((1,2,3,5,6,7-hexahydro-s-indacen-4-yl)carbamoyl)pyridazine-3-sulfonamide, Potassium Salt], the IC50 was below 0.8 µM. The same measure, in the same setting: for `COc1ccc(S(=O)(=O)NC(=O)Nc2c3c(cc4c2CCC4)CCC3)nn1` [Example 22, N-((1,2,3,5,6,7-Hexahydro-s-indacen-4-yl)carbamoyl)-6-methoxy pyridazine-3-sulfonamide, Potassium Salt] the value was below 1.6 µM; for `O=C(Nc1c2c(cc3c1CCC3)CCC2)NS(=O)(=O)c1ccc(=O)[nH]c1` [Example 23, N-((1,2,3,5,6,7-hexahydro-s-indacen-4-yl)carbamoyl)-6-oxo-1,6-dihydropyridine-3-sulfonamide, Potassium Salt], below 10 µM.

On to `N#Cc1nccnc1S(=O)(=O)NC(=O)Nc1c2c(cc3c1CCC3)CCC2` [Example 24, 3-Cyano-N-((1,2,3,5,6,7-hexahydro-s-indacen-4-yl)carbamoyl)pyrazine-2-sulfonamide, Potassium Salt], for which the IC50 was below 10 µM. Regarding `CN(C)CCNc1cnc(S(=O)(=O)NC(=O)Nc2c3c(cc4c2CCC4)CCC3)cn1` [Example 25, 5-((2-(Dimethylamino)ethyl)amino)-N-((1,2,3,5,6,7-hexahydro-s-indacen-4-yl)carbamoyl)pyrazine-2-sulfonamide, potassium Salt], the IC50 is below 0.8 µM. As to `CN(C)c1cnc(S(=O)(=O)NC(=O)Nc2c3c(cc4c2CCC4)CCC3)cn1` [Example 26, 5-(Dimethylamino)-N-((1,2,3,5,6,7-hexahydro-s-indacen-4-yl)carbamoyl)pyrazine-2-sulfonamide, Potassium Salt], the IC50 was below 0.8 µM. In the case of `O=C(Nc1c2c(cc3c1CCC3)CCC2)NS(=O)(=O)c1cncc(N2CCOCC2)n1` [Example 28, N-((1,2,3,5,6,7-Hexahydro-s-indacen-4-yl)carbamoyl)-6-morpholinopyrazine-2-sulfonamide, Potassium Salt], the IC50 was below 0.8 µM. In the case of `Cc1nccnc1S(=O)(=O)NC(=O)Nc1c2c(cc3c1CCC3)CCC2` [Example 29, N-((1,2,3,5,6,7-Hexahydro-s-indacen-4-yl)carbamoyl)-3-methylpyrazine-2-sulfonamide, Potassium Salt], the IC50 is below 10 µM.

On to `O=C(Nc1c2c(cc3c1CCC3)CCC2)NS(=O)(=O)c1cnc2ccccc2n1` [Example 30, N-((1,2,3,5,6,7-Hexahydro-s-indacen-4-yl)carbamoyl)quinoxaline-2-sulfonamide, Potassium Salt], for which the IC50 is below 10 µM. As for `Cc1nn(C)c2ncc(S(=O)(=O)NC(=O)Nc3c4c(cc5c3CCC5)CCC4)cc12` [Example 31, N-((1,2,3,5,6,7-Hexahydro-s-indacen-4-yl)carbamoyl)-1,3-dimethyl-1H-pyrazolo[3,4-b]pyridine-5-sulfonamide, Potassium Salt], the half-inhibitory concentration (IC50) is below 10 µM.

Regarding `CCOc1ccncc1S(=O)(=O)NC(=O)Nc1c2c(cc3c1CCC3)CCC2` [Example 32, 4-Ethoxy-N-((1,2,3,5,6,7-hexahydro-s-indacen-4-yl)carbamoyl)pyridine-3-sulfonamide, Potassium Salt], the IC50 was below 10 µM. As to `CC(C)c1cc(F)cc(-c2ccnc(C#N)c2)c1NC(=O)NS(=O)(=O)c1cncc(N(C)C)n1` [Example 34, N-((2-(2-Cyanopyridin-4-yl)-4-fluoro-6-isopropylphenyl)carbamoyl)-6-(dimethylamino)pyrazine-2-sulfonamide], the IC50 is below 0.8 µM. As to `COc1cc(-c2cc(F)cc(C(C)C)c2NC(=O)NS(=O)(=O)c2cncc(N(C)C)n2)ccn1` [Example 35, 6-(Dimethylamino)-N-((4-fluoro-2-isopropyl-6-(2-methoxypyridin-4-yl)phenyl)carbamoyl)pyrazine-2-sulfonamide], the IC50 was below 0.8 µM.

Turning to `COc1cc(-c2ccc3c(c2NC(=O)NS(=O)(=O)c2cncc(N(C)C)n2)CCC3)ccn1` [Example 36, 6-(Dimethylamino)-N-((5-(2-methoxypyridin-4-yl)-2,3-dihydro-1H-inden-4-yl)carbamoyl)pyrazine-2-sulfonamide], the IC50 is below 0.8 µM. Consider `COc1cc(-c2cc(F)cc(C(C)C)c2NC(=O)NS(=O)(=O)c2cnc(N(C)C)cn2)ccn1` [Example 39, 5-(Dimethylamino)-N-((4-fluoro-2-isopropyl-6-(2-methoxypyridin-4-yl)phenyl)carbamoyl)pyrazine-2-sulfonamide], for which the IC50 is below 0.8 µM. Consider `CN(C)c1cnc(S(=O)(=O)NC(=O)Nc2c(-c3ccncc3)cc(F)c3c2CCC3)cn1` [Example 41, 5-(Dimethylamino)-N-((7-fluoro-5-(pyridin-4-yl)-2,3-dihydro-1H-inden-4-yl)carbamoyl)pyrazine-2-sulfonamide], for which the IC50 was below 0.8 µM. `COc1cc(-c2cc(F)cc(C(C)C)c2NC(=O)NS(=O)(=O)c2nccnc2C(F)F)ccn1` [Example 43, 3-(Difluoromethyl)-N-((4-fluoro-2-isopropyl-6-(2-methoxypyridin-4-yl)phenyl)carbamoyl)pyrazine-2-sulfonamide]: the IC50 is below 10 µM. The same measure, in the same setting: for `COc1cc(-c2ccc3c(c2NC(=O)NS(=O)(=O)c2nccnc2C(F)F)CCC3)ccn1` [Example 44, 3-(Difluoromethyl)-N-((5-(2-methoxypyridin-4-yl)-2,3-dihydro-1H-inden-4-yl)carbamoyl)pyrazine-2-sulfonamide] the value was below 1.2 µM.

Still in this assay, the particulars now being: THP-1 pyroptosis assay, bound stated; read-out: IC50 value.
For the compound `O=C(Nc1c2c(cc3c1CCC3)CCC2)NS(=O)(=O)c1ncccn1` [Example 3, N-((1,2,3,5,6,7-Hexahydro-s-indacen-4-yl)carbamoyl) pyrimidine-2-sulfonamide, Potassium Salt], the half-inhibitory concentration (IC50) is above 1.2 µM.
